What was measured:
[1] = Kinetic/metabolite studies: HPLC analysis of plasma after oral administration; type: in vivo, Sprague-Dawley rats; details: for Compound in plasma / metabolites observed in plasma: after oral administration, HPLC; for metabolites observed in plasma: in words; for time within which the compound is metabolised after administration: oral administration
Description: Plasma samples were collected in order to test the correlation of plasma drug (or metabolite) concentration with hypoglycaemic activity, and to determine whether compounds of the invention were converted in vivo into active metabolites. The plasma levels of test compounds or metabolites also give an indication of rate of metabolism and kinetics of drug action.
Blood samples collected from rats treated as above and collected at the same intervals were analysed using an ICI LC1150 HPLC system and a LC1210 UV detector at a wavelength of 227 nm. The HPLC system used a Merck LiChroCART 125-4 LiChrosphere 100 RP-18 HPLC and LiChrosphere 100 RP-18 guard columns. The mobile phase consisted of 70% acetonitrile and a 30% aqueous sodium phosphate buffer at pH 7.45 and was prepared using standard HPLC grade reagents and distilled water. To improve the resolution of peaks and separation of the compounds a gradient method was established where changes in the concentration of the required buffers and solvents, and the time at which these changes occur is outlined in Table 7. The volumes are expressed as percentages of the total flow rate, with the flow rate remaining constant at […].
The data were acquired using the WinChrom Data Management system and were calibrated using stock solutions of the test compounds and Glibenclamide as an internal standard dissolved in 100% methanol
Plasma (250 μL) collected from the rats were extracted into methanol (700 μL) and 50 μL of Glibenclamide (25 μg/ml). The mixture was then agitated with a vortex mixer for 15 sec and centrifuged for 10 min. The clear supernatant was then carefully aspirated for HPLC analysis.
The results are outlined in Table 8 and show retention times (minutes) for the compounds and their metabolites as analysed by HPLC after oral administration in Sprague-Dawley rats. […] Glibenclamide is shown for comparison only, none of the metabolites observed with the test compounds correspond to metabolites of Glibenclamide.

[2] = Hypoglycaemic activity: change in blood glucose after oral gavage; type: in vivo, Sprague Dawley rats; details: 1.6 mg/kg oral gavage, normal fed male rats
Description: The biological activity of representative compounds of the invention was evaluated by means of several different tests. The activity of compounds of this invention as hypoglycaemic agents was measured and compared with the activity of the known compound of Example 1, using methods described in the literature. Thus normal, fed male Sprague Dawley rats weighing between 275 and 375 g were studied for changes in blood sugar levels and alterations to mean arterial blood pressure following administration of representative compounds of the invention suspended in a 5% solution of gum acacia by oral gavage at a dose of 1.6 mg/kg. The concentration of each compound was 4 mg in 10 ml, so that each rat received 1.1-1.5 ml to obtain the desired dose on a body weight basis. The blood sugar levels were recorded for each rat immediately prior to administration, and at 1, 2, and 3 hr following administration of the test compounds. Blood glucose levels were determined on blood samples taken from the tail, and analysed on an Ames blood glucometer, model 5626, and Ames, 2627 blood glucose strips (number 2). […] It is apparent that generally the heterocyclic sulphonylthioureas have greater activity than the sulphonylureas. Without wishing to be bound by any proposed mechanism for the observed effect, we believe that this may be associated with differences in lipid permeability.

[3] = Cohen, 1986; cited from earlier work
[4] = system: isolated guinea pig atria; experiment: Cardiac effects on isolated atrial preparations; design: species or system English short-haired guinea pigs; details: bath concentration 8×10^-6 M, 37° C., maximum responses
Description: Preliminary investigations were performed on isolated atrial preparations, and the results obtained using representative compounds of the invention compared to those obtained using the known compound of Example 1 and using Glibenclamide. English short-haired guinea pigs weighing between 200 and 300 g were killed by cervical dislocation. The whole heart was quickly removed by dissection and immersed in a Krebs-Henseleit solution, which had been aerated with carbogen (95% oxygen and 5% carbon dioxide). The atria were then separated by dissection in Krebs-Henseleit solution, whilst being aerated with carbogen.
The atria were then immersed in a 10 ml organ bath containing Krebs-Henseleit solution, maintained at 37° C. for the duration of the experiment by the circulation of water through the water jackets of organ baths by a temperature controlled water pump (Braun Thermomix, Germany), and aerated with carbogen. […] Changes in tension were measured by isometric force transducers and were recorded on a four channel Grass 7P Polygraph (Grass Instruments, Quincy, Mass., USA) which was calibrated daily such that the atria functioned with a resting tension of 1 g. The rate of beating of the atria was measured by the tachograph.
The activity of each test compound was assessed and compared to that of glibenclamide. […]

[5] = system: MCF-7 human mammary carcinoma cells; experiment: Cell proliferation of MCF-7 tumour cells; type: cell-based; details: 100 μM compound
Description: The ability of a representative compound of the invention to inhibit proliferation of a tumour cell line was examined. MCF-7 human mammary carcinoma cells (Woodfork et al, 1995) were grown in 25 cm^2 Corning flasks in a 5% CO2 water jacket incubator. The medium used for the culture was RPMI 1640 (ICN) and was supplemented with 10% foetal Bovine serum (Cytosystems).
Cells and medium were examined daily to check for growth and infection. The medium was changed every second day. When cells reached 70-80% confluence, the cells were trypsinized with 0.05% trypsin (1:250, "DIFCO") and 0.02% EDTA.
The flasks were firstly washed with a phosphate buffer to remove residual RPMI 1640 medium, then covered with 2 mL of the trypsin solution and left in the incubator for 3-5 minutes. The cells were then transferred to a conical tube containing 2 mL of medium and 10% foetal bovine serum. The cells were centrifuged at 1000 rpm for 3 minutes and the supernatant removed 5 ml of the medium was then added to the pellet of cells and resuspended with a 2 ml pipette.
Approximately 10 μL of medium containing the cells was placed in a Neubauer haemocytometer, and the cells were counted in the 4×1 mm^2 grid per chamber. Cells were then diluted to contain 60×10^4 cells to be added to "Corning" 24 well plates (16 mm diameter). Wells respectively containing the control group and 100 μM compound 1-24 were established, and 3 wells/group/day were used to perform the cell growth study.
Each well contained 500 μL of medium or of compound 1-24. Plates were incubated for 24 hours before counting. The medium was aspirated with different pipette tips for the different study groups 100 μL of 0.02% EDTA solution was added to each well and incubated for 5 minutes. 200 μL of trypsin-EDTA was then added, and the cells incubated for a further 5 minutes, aspirated, and placed in 0.5 mL Eppendorf tubes before counting in a haemocytometer.

[6] = system: MCF-7 mammary carcinoma cells; experiment: Thymidine uptake ([methyl-3H] thymidine incorporation into DNA); type: cell-based, human; details: 100 μM (printed 100 μH / 100 mM), compared to control group; Glibenclamide n=3, Compound 1-24 n=4
Description: Incorporation of [methyl-3H] thymidine into DNA was measured as described by Murphy and Lazarus (1983), using MCF-7 mammary carcinoma cells treated with compound 1-24 (100 μH) and a control group. The growth medium from cells cultured as described in Example 24 was aspirated from the wells, and 1 mL of fresh growth medium containing 1 μCi [3H]-thymidine (Amersham) was added to each well After 4 hours incubation, the medium was aspirated and the monolayers were washed three times with ice cold phosphate buffered saline (ICN). This was followed by three washes with 10% (v/v) ice cold trichloroacetic acid, each of 5 minutes duration. After another three washes with absolute ethanol at room temperature of 5 minutes duration, the monolayer was dried at room temperature for 10 minutes. The monolayer was […] after incubation for 12 hours with 0.5 N NaOH and 1% Triton-X 100 (Sigma). An aliquot of the cell lysate was added to 10 ml of Ultima Gold (Packard) and counted using a liquid scintillation counter (Packard model 19006A).

Structure (SMILES)	Compound in plasma [1]	metabolites observed in plasma [1]	Change in Blood Glucose, 0 hours [2] [mmol/L]	Change in Blood Glucose, 1 Hour [2] [mmol/L]	Change in Blood Glucose, 2 Hours [2] [mmol/L]	Change in Blood Glucose, 3 Hours [2] [mmol/L]	further results
CCOc1cccc(NC(=O)NS(=O)(=O)c2ccc(C)cc2)n1 [Compound 1-4, N-[(4-Methylphenyl)sulphonyl]-N'-(6-ethoxypyrid-2-yl)urea]	yes	no metabolites were observed in the 4 hour period					
Cc1ccc(S(=O)(=O)NC(=S)Nc2cccc(Br)n2)cc1 [Compound 1-21, N-[(4-Methylphenyl)sulphonyl]-N'-(6-bromopyrid-2-yl)thiourea]			0.0	-0.9	-2.1	-0.7	
Cc1ccc(S(=O)(=O)NC(=S)Nc2nc(C)cc(C)n2)cc1 [Compound 4-36, N-[(4-Methylphenyl)sulphonyl]-N'-(4,6-dimethylypyrimid-2-yl)thiourea]			0.0	-1.1	-1.6	-1.3	
CCOc1cc(NC(=S)NS(=O)(=O)c2ccc(C)cc2)ccn1 [Compound 3-15, N-[(4-Methylphenyl)sulphonyl]-N'-(2-ethoxypyrid-4-yl)thiourea]	no	numerous metabolites in the plasma					time within which the compound is metabolised after administration [1]: ≤ 2 h
CC(N/C(=N\C#N)Nc1ccncc1)C(C)(C)C (stereo not drawn) [pinacidil]							vasodilator activity [3]: vasodilator activity
Cc1ccc(S(=O)(=O)NC(=S)Nc2ccncc2)cc1 [Compound 3-23, N-[(4-Methylphenyl)sulphonyl]-N'-(4-pyridyl)thiourea]			0.0	-1.0	-1.4	-2.1	inotropic activity [4]: particularly marked inotropic activity
CCOc1cccc(NC(=S)NS(=O)(=O)c2ccc(C)cc2)n1 [Compound 1-24]	no	numerous metabolites in the plasma	0.0	0.5	-2.2	-1.8	inotropic activity [4]: particularly marked inotropic activity; time within which the compound is metabolised after administration [1]: ≤ 2 h; doubling rate of control group greater than that of cells exposed to compound [5]: approximately 25%; Rate of cell growth: mean cell number, Day 0 ([5]; day 0, n=1 in triplicate): 60,000; Rate of cell growth: mean cell number, Day 1 ([5]; day 1, control 58,000): 74,000; Rate of cell growth: mean cell number, Day 2 ([5]; day 2, control 110,000): 93,000; Rate of cell growth: mean cell number, Day 3 ([5]; day 3, control 188,000): 143,000; Rate of cell growth: mean cell number, Day 6 ([5]; day 6, control 355,000): 230,000; effect on MCF-7 tumour cell proliferation ([5]; in words): reduces MCF-7 tumour cell proliferation; inhibition of thymidine uptake [6]: significant inhibition
Cc1ccc(S(=O)(=O)NC(=O)Nc2nc(C)cc(C)n2)cc1 [Compound of Example 1, reference compound]			0.0	-0.8	-2.1	-0.8	
